Experimental data reported in BindingDB's records for doi:10.1021/jm00039a015 (Abbott Laboratories, 1994).

Molecular target: Platelet-activating factor receptor (Oryctolagus cuniculus)
Assay: Antagonist activity against platelet activating factor (PAF) receptor in rabbit platelet membranes using [3H]C18-PAF as radioligand

SMILES	Ki
Cc1c(C(=O)[C@@H]2CSC(c3cccnc3)N2)c2ccccc2n1C(=O)N1CCOCC1 (stereo partly drawn) [[2-Methyl-3-((R)-2-pyridin-3-yl-thiazolidine-4-carbonyl)-indol-1-yl]-morpholin-4-yl-methanone]	0.088 µM
Cc1ccc2c(c1)c(C(=O)[C@@H]1CSC(c3cccnc3)N1)c(C)n2C(=O)OC(C)(C)C (stereo partly drawn) [2,5-Dimethyl-3-((R)-2-pyridin-3-yl-thiazolidine-4-carbonyl)-indole-1-carboxylic acid tert-butyl ester; compound with oxalic acid]	0.077 µM
CN(C)C(=O)n1cc(C(=O)[C@@H]2CSC(c3cccnc3)N2)c2ccc(-c3ccc(F)cc3)cc21 (stereo partly drawn) [6-(4-Fluoro-phenyl)-3-((R)-2-pyridin-3-yl-thiazolidine-4-carbonyl)-indole-1-carboxylic acid dimethylamide]	0.0092 µM
O=C(c1c[nH]c2cccc(OCc3ccccc3)c12)[C@@H]1CSC(c2cccnc2)N1 (stereo partly drawn) [(4-Benzyloxy-1H-indol-3-yl)-((R)-2-pyridin-3-yl-thiazolidin-4-yl)-methanone]	0.013 µM
CCn1cc(C(=O)[C@@H]2CSC(c3cccnc3)N2)c2ccccc21 (stereo partly drawn) [(1-Ethyl-1H-indol-3-yl)-((R)-2-pyridin-3-yl-thiazolidin-4-yl)-methanone]	0.0054 µM
O=C(Nc1cccc(Cl)c1)[C@@H]1CSC(c2cccnc2)N1 (stereo partly drawn) [(R)-2-Pyridin-3-yl-thiazolidine-4-carboxylic acid (3-chloro-phenyl)-amide]	0.208 µM
CN(C)C(=O)n1cc(C(=O)[C@@H]2CSC(c3cccnc3)N2)c2ccc(C#Cc3ccccc3)cc21 (stereo partly drawn) [6-Phenylethynyl-3-((R)-2-pyridin-3-yl-thiazolidine-4-carbonyl)-indole-1-carboxylic acid dimethylamide]	0.0013 µM
COc1cc2[nH]cc(C(=O)[C@@H]3CSC(c4cccnc4)N3)c2cc1OC (stereo partly drawn) [(5,6-Dimethoxy-1H-indol-3-yl)-((R)-2-pyridin-3-yl-thiazolidin-4-yl)-methanone]	0.087 µM
O=C(c1c[nH]c2ccccc12)[C@@H]1CSC(c2cccnc2)N1 (stereo partly drawn) [(1H-Indol-3-yl)-((R)-2-pyridin-3-yl-thiazolidin-4-yl)-methanone; compound with oxalic acid]	0.0034 µM
CCOC(=O)Cn1cc(C(=O)[C@@H]2CSC(c3cccnc3)N2)c2ccccc21 (stereo partly drawn) [[3-((R)-2-Pyridin-3-yl-thiazolidine-4-carbonyl)-indol-1-yl]-acetic acid ethyl ester]	0.0012 µM
O=C(c1cn(C(=O)c2ccc(Cl)cc2)c2ccccc12)[C@@H]1CSC(c2cccnc2)N1 (stereo partly drawn) [(4-Chloro-phenyl)-[3-((R)-2-pyridin-3-yl-thiazolidine-4-carbonyl)-indol-1-yl]-methanone]	0.0034 µM
CC(C)(C)NC(=O)n1cc(C(=O)[C@@H]2CSC(c3cccnc3)N2)c2ccccc21 (stereo partly drawn) [3-((R)-2-Pyridin-3-yl-thiazolidine-4-carbonyl)-indole-1-carboxylic acid tert-butylamide]	0.0088 µM
CC(C)(C)OC(=O)n1cc(C(=O)[C@@H]2CSC(c3cccnc3)N2)c2ccccc21 (stereo partly drawn) [3-((R)-2-Pyridin-3-yl-thiazolidine-4-carbonyl)-indole-1-carboxylic acid tert-butyl ester]	0.001 µM
CN(C)C(=O)n1cc(C(=O)[C@@H]2CSC(c3cccnc3)N2)c2ccc(OCc3ccccc3)cc21 (stereo partly drawn) [6-Benzyloxy-3-((R)-2-pyridin-3-yl-thiazolidine-4-carbonyl)-indole-1-carboxylic acid dimethylamide; compound with oxalic acid]	0.0014 µM
O=C([C@@H]1CSC(c2cccnc2)N1)n1ccc2cccc(OCc3ccccc3)c21 (stereo partly drawn) [(7-Benzyloxy-indol-1-yl)-((R)-2-pyridin-3-yl-thiazolidin-4-yl)-methanone; compound with oxalic acid]	0.385 µM
CC(=O)N1C(c2cccnc2)SC[C@H]1C(=O)c1c[nH]c2ccccc12 (stereo partly drawn) [1-[(R)-4-(1H-Indole-3-carbonyl)-2-pyridin-3-yl-thiazolidin-3-yl]-ethanone]	17.8 µM
CN(C)C(=O)n1cc(C(=O)[C@@H]2CSC(c3cccnc3)N2)c2ccc(-c3ccccc3)cc21 (stereo partly drawn) [6-Phenyl-3-((R)-2-pyridin-3-yl-thiazolidine-4-carbonyl)-indole-1-carboxylic acid dimethylamide]	0.0036 µM
CCOC(=O)n1cc(C(=O)[C@@H]2CSC(c3cccnc3)N2)c2ccccc21 (stereo partly drawn) [3-((R)-2-Pyridin-3-yl-thiazolidine-4-carbonyl)-indole-1-carboxylic acid ethyl ester]	0.0044 µM
CN(C)C(=O)n1cc(C(=O)[C@@H]2CSC(c3cccnc3)N2)c2ccc(Cl)cc21 (stereo partly drawn) [6-Chloro-3-((R)-2-pyridin-3-yl-thiazolidine-4-carbonyl)-indole-1-carboxylic acid dimethylamide]	0.001 µM
NC(=O)Cn1cc(C(=O)[C@@H]2CSC(c3cccnc3)N2)c2ccccc21 (stereo partly drawn) [2-[3-((R)-2-Pyridin-3-yl-thiazolidine-4-carbonyl)-indol-1-yl]-acetamide]	0.005 µM
CN(C)C(=O)n1cc(C(=O)[C@@H]2CSC(c3cccnc3)N2)c2ccc(OCc3ccc(F)cc3)cc21 (stereo partly drawn) [6-(4-Fluoro-benzyloxy)-3-((R)-2-pyridin-3-yl-thiazolidine-4-carbonyl)-indole-1-carboxylic acid dimethylamide]	0.0018 µM
Cc1cccc2c(C(=O)[C@@H]3CSC(c4cccnc4)N3)c[nH]c12 (stereo partly drawn) [(7-Methyl-1H-indol-3-yl)-((R)-2-pyridin-3-yl-thiazolidin-4-yl)-methanone]	0.0065 µM

SMILES	Ki
Cc1ccc2c(C(=O)[C@@H]3CSC(c4cccnc4)N3)cn(C(=O)OC(C)(C)C)c2c1 (stereo partly drawn) [6-Methyl-3-((R)-2-pyridin-3-yl-thiazolidine-4-carbonyl)-indole-1-carboxylic acid tert-butyl ester]	0.0026 µM
CN(C)C(=O)n1cc(C(=O)[C@@H]2CSC(c3cccnc3)N2)c2ccc(-c3cccnc3)cc21 (stereo partly drawn) [6-Pyridin-3-yl-3-((R)-2-pyridin-3-yl-thiazolidine-4-carbonyl)-indole-1-carboxylic acid dimethylamide]	0.04 µM
Cc1ccc2[nH]c(C)c(C(=O)[C@@H]3CSC(c4cccnc4)N3)c2c1 (stereo partly drawn) [(2,5-Dimethyl-1H-indol-3-yl)-((R)-2-pyridin-3-yl-thiazolidin-4-yl)-methanone]	0.033 µM
O=C([C@@H]1CSC(c2cccnc2)N1)n1ccc2ccc(OCc3ccccc3)cc21 (stereo partly drawn) [(6-Benzyloxy-indol-1-yl)-((R)-2-pyridin-3-yl-thiazolidin-4-yl)-methanone]	0.052 µM
Cc1[nH]c2ccccc2c1C(=O)[C@@H]1CSC(c2cccnc2)N1 (stereo partly drawn) [(2-Methyl-1H-indol-3-yl)-((R)-2-pyridin-3-yl-thiazolidin-4-yl)-methanone]	0.023 µM
CN(C)C(=O)n1cc(C(=O)[C@@H]2CSC(c3cccnc3)N2)c2ccc(C(=O)c3ccccc3)cc21 (stereo partly drawn) [6-Benzoyl-3-((R)-2-pyridin-3-yl-thiazolidine-4-carbonyl)-indole-1-carboxylic acid dimethylamide]	0.001 µM
O=C(C1CSC(c2cccnc2)N1)n1ccc2c(Cl)cccc21 (stereo not drawn) [(4-Chloro-indol-1-yl)-(2-pyridin-3-yl-thiazolidin-4-yl)-methanone]	0.033 µM
O=C(c1c[nH]c2ccccc12)[C@@H]1CS[C@@H](c2cccnc2)N1C(=O)C(F)(F)F	7.1 µM
CN(C)C(=O)n1cc(C(=O)[C@@H]2CSC(c3cccnc3)N2)c2cccc(OCc3ccccc3)c21 (stereo partly drawn) [7-Benzyloxy-3-((R)-2-pyridin-3-yl-thiazolidine-4-carbonyl)-indole-1-carboxylic acid dimethylamide]	0.014 µM
O=CN1C(c2cccnc2)SC[C@H]1C(=O)c1c[nH]c2ccccc12 (stereo partly drawn) [(R)-4-(1H-Indole-3-carbonyl)-2-pyridin-3-yl-thiazolidine-3-carbaldehyde]	0.22 µM
O=C(C1CSC(c2cccnc2)N1)n1ccc2cc(OCc3ccccc3)ccc21 (stereo not drawn) [(5-Benzyloxy-indol-1-yl)-(2-pyridin-3-yl-thiazolidin-4-yl)-methanone]	0.015 µM
Cc1ccc2c(c1)c(C(=O)[C@@H]1CSC(c3cccnc3)N1)c(C)n2C(=O)N(C)C (stereo partly drawn) [2,5-Dimethyl-3-(2-pyridin-3-yl-thiazolidine-4-carbonyl)-indole-1-carboxylic acid dimethylamide]	0.013 µM
Cc1ccc2c(C(=O)[C@@H]3CSC(c4cccnc4)N3)c[nH]c2c1 (stereo partly drawn) [(6-Methyl-1H-indol-3-yl)-((R)-2-pyridin-3-yl-thiazolidin-4-yl)-methanone]	0.0034 µM
O=C(O)CCn1cc(C(=O)[C@@H]2CSC(c3cccnc3)N2)c2ccccc21 (stereo partly drawn) [3-[3-((R)-2-Pyridin-3-yl-thiazolidine-4-carbonyl)-indol-1-yl]-propionic acid]	0.025 µM
O=C(c1c[nH]c2cc(OCc3cccnc3)ccc12)[C@@H]1CSC(c2cccnc2)N1 (stereo partly drawn) [[6-(Pyridin-3-ylmethoxy)-1H-indol-3-yl]-((R)-2-pyridin-3-yl-thiazolidin-4-yl)-methanone]	0.037 µM
Cc1nnc2n1-c1sc3c(c1C(c1ccccc1Cl)=NC2)CC(C(=O)N1CCOCC1)C3 (stereo not drawn) [6-(2-chlorophenyl)-1-methyl-8,9-dihydro-4H,7H-cyclopenta[4,5]thieno[3,2-f][1,2,4]triazolo[4,3-a][1,4]diazepin-9-yl-1,4-oxazinan-4-ylmethanone (WEB 2170)]	0.029 µM
O=C(c1c[nH]c2cc(OCc3ccc(F)cc3)ccc12)[C@@H]1CSC(c2cccnc2)N1 (stereo partly drawn) [[6-(4-Fluoro-benzyloxy)-1H-indol-3-yl]-((R)-2-pyridin-3-yl-thiazolidin-4-yl)-methanone]	0.0016 µM
CCS(=O)(=O)n1cc(C(=O)[C@@H]2CSC(c3cccnc3)N2)c2ccccc21 (stereo partly drawn) [(1-Ethanesulfonyl-1H-indol-3-yl)-((R)-2-pyridin-3-yl-thiazolidin-4-yl)-methanone]	0.018 µM
O=C(Nc1cccc(Cl)c1)c1ccn2c1CSC2c1cccnc1 (stereo not drawn) [RP-52770]	0.274 µM
Cc1ccc2c(c1)c(C(=O)[C@@H]1CSC(c3cccnc3)N1)c(C)n2C(=O)N1CCOCC1 (stereo partly drawn) [[2,5-Dimethyl-3-((R)-2-pyridin-3-yl-thiazolidine-4-carbonyl)-indol-1-yl]-morpholin-4-yl-methanone]	0.036 µM
COc1cc(C(=O)c2cccc(NC(=O)[C@@H]3CSC(c4cccnc4)N3)c2)cc(OC)c1OC (stereo partly drawn) [(R)-2-Pyridin-3-yl-thiazolidine-4-carboxylic acid [3-(3,4,5-trimethoxy-benzoyl)-phenyl]-amide]	0.0016 µM
